Data published in patent US7026289B2, “Method and compositions for treating hyperlipidemia and other conditions” (Societe de Conseils de Recherches et d'Applications …, priority 1997, dated 2006).
Positions of bridges follow the written chain, without caps; N, C: chain ends. Non-standard residues stand in square brackets, D forms with d. Residues, ends and D or L forms follow the SMILES beside them.

Columns and labels:
[1] = test system: fatty (fa/fa) Zucker rats; test: Reduction of glycerol and triglycerides, chronic treatment in obese rats; format: in vivo, rat; details: for plasma glycerol / plasma triglycerides: 3 mg/kg s.c. twice a day, 6 days, vs saline
From the text: The obese (fa/fa) Zucker and its derivative in the Zucker diabetic fatty (ZDF/Drt-fa) are excellent models of diabetes-induced dyspilidemia (Shafrir, E., Diabetes/Metabolism Rev. 8:179–208 (1992); Peterson, R. G., et al., ILAR News 32:16–19 (1990)). The animals develop progressive hypertriglyceridemia and hypercholesterolemia.
Eleven male fatty Zucker rats weighing about 450 grams were randomly divided into 2 groups and their initial body wights recorded. The animals were housed in pairs in a normal 12 hour light/dark cycle at 20–21 C and fed a standard laboratory rat diet (Beekay rat and mouse diet, Bantin & Kingman, Hull, Humberside, U.K.) overnight ad libitum.
For the group assigned to receive drug treatment, the rats received BIM-23268C at 3 mg/kg, by subcutaneous injection twice a day at 10:00 a.m. and 5:00 p.m. The other group was treated with a subcutaneous injection of 0.1 ml/100 g of saline twice a day at 10:00 a.m. and 5:00 p.m. The animals were subjected to the BIM-23268 or saline treatment for a total of six days.
On the last day of treatment (day 6), food was removed at 5:00 p.m. and the rats fasted overnight. At 9:00 a.m. the next day, the animals were subjected to a glucose challenge, given as a 0.8 gram/kg of glucose orally. Periodic 400 ul of blood samples were taken from the tail vein (Peterson, R. G., ILAR News 32:16–19 (1990)) at 60 min. and 30 min. before, and at 30, 60, 90, and 120 min. after the administration of the glucose challenge (08. gram/kg orally). Aprotinin (Traysylol, Bayer UK, Hayward's Heath, W. Sussex, U.K.) and heparin (Sigma Chemical Co., Poole, Dorset, U.K.) were added to the blood samples to a final concentration of 400 KIU/ml and 100 units/ml, respectively. Plasma fractions were prepared from these samples by centrifugation at 400×G in a microfuge, for the estimation of triglycerides and glycerol. Samples were then stored at −80° C. until assayed.
Plasma glycerol and triglycerides were determined using the Sigma Enzymatic (Tinder) calorimetric assay kit (Cat #337-B, Sigma Chemical Co., Poole, Dorset, U.K.) and measuring absorbance at 540 nm in a spectrophotometer.

hSSTR-1 = target: T1, hSSTR-1 (Homo sapiens, UniProt P30872); test: Somatostatin receptor binding assay, [125I-Tyr11] somatostatin-14, CHO-K1 membranes; details: displacement of 0.05 nM [125I-Tyr11] somatostatin-14, transfected CHO-K1 membranes
T1 construct: expressed in transfected cells
T1 sequence (P30872 whole entry): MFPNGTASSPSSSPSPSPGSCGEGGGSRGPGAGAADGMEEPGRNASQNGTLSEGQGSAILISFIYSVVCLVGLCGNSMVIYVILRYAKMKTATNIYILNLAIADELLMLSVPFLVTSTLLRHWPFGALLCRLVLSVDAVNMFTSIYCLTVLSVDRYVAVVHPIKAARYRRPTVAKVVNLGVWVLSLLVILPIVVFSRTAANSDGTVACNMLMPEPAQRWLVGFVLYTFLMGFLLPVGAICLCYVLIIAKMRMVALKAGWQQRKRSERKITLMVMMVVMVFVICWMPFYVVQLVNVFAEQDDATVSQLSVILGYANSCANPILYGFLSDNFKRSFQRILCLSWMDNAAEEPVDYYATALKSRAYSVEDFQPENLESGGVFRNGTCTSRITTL
Procedure: Restriction endonucleases are available from New England Biolabs (Beverly, Mass.). […] Other mammalian expression vectors include pcDNA1/Amp (Invitrogen, Sandlesy, Calif.). The expression plasmids were introduced into the suitable bacterial host, E. Coli HB101 (Stratagene, La Jolla, Calif.) and plasmid DNAs, for transfection, were prepared on Cesium Chloride gradients.
CHO-K1 (ovary, Chinese hamster) cells were obtained from ATCC (ATCC No. CCL 61). The cells were grown and maintained in Ham's F12 media (Gibco BRL, Grand Island, N.Y.) supplemented with 10% fetal bovine serum under standard tissue culture conditions. […] DNA mediated transfection was carried out using the calcium phosphate co-precipitation method (Ausubel, F. M., et al., Current Protocols in Molecular Biology, John Wiley & Sons, 1987). The plasmid pRSV-neo (ATCC; ATCC No. 37198) was included as a selectable marker at 1/10 the concentration of the expression plasmid. CHO-K1 clonal cell lines that have stably inherited the transfected DNA were selected for growth in Ham's F12 media containing 10% fetal bovine serum and 0.5 mg/ml of G418 (Sigma). The cells were ring-cloned and expanded in the same media for analysis.
Transfected cell lines expressing the human SSTR receptors were clonally expanded in culture and used in the following SSTR binding protocol.
The resulting supernatant was decanted and discarded. […]

[2] = samples 30 and 60 min before oral glucose challenge
[3] = through the 2-hour test period after oral glucose challenge

SMILES	plasma glycerol [1, 2]	plasma triglycerides [1, 2]	plasma glycerol [1, 3]	plasma triglycerides [1, 3]	hypertriglyceridemia ([1]; 6-day treatment period at the prescribed dose (3 mg/kg s.c. twice a day))	Ki (hSSTR-1)
C[C@@H](O)[C@@H]1NC(=O)[C@H](CCCCN)NC(=O)[C@@H](Cc2c[nH]c3ccccc23)NC(=O)[C@H](Cc2ccccc2)NC(=O)[C@H](Cc2ccccc2)NC(=O)[C@@H](N)CSSC[C@@H](C(N)=O)NC(=O)[C@H](Cc2ccccc2)NC1=O [BIM-23268, H-Cys-Phe-Phe-D-Trp-Lys-Thr-Phe-Cys-NH2] (H-CFF[dW]KTFC-NH2; disulfide 1-8)	significantly lowered	significantly lowered	significantly lower	significantly lower	effective in reducing hypertriglyceridemia	
C[C@@H](O)[C@@H]1NC(=O)[C@H](CCCCN)NC(=O)[C@@H](Cc2c[nH]c3ccccc23)NC(=O)[C@H](Cc2ccc(O)c(I)c2)NC(=O)[C@H](Cc2ccccc2)NC(=O)[C@@H](N)CSSC[C@@H](C(N)=O)NC(=O)[C@H](Cc2ccccc2)NC1=O [BIM-23313, H-Cys-Phe-Tyr(I)-D-Trp-Lys-Thr-Phe-Cys-NH2]						151 nM
